Like-named read-outs stand apart in the source and are kept apart here.
Columns and labels:
Type in all cases: cell-based
[1] = tested on: IIIB strain of HIV-1 (WT); experiment: Anti-HIV-1 activity, protection of infected MT-2 cells; conditions: for EC50: Human immunodeficiency virus 1, IIIB; for anti-HIV-1 activity in words: wild-type HIV-1, MT-2 cells
[2] = tested on: HIV-1 K103N/Y181C variant strain; experiment: Anti-HIV-1 activity in MT-2 cells, K103N/Y181C variant strain; conditions: Human immunodeficiency virus 1, MT2, read-out: K103N/Y181C EC50
[3] = tested on: HIV-1 Y181C variant strain; experiment: Anti-HIV-1 activity in MT-2 cells, Y181C variant strain; conditions: Human immunodeficiency virus 1, MT2, read-out: Y181C EC50
[4] = MT2, read-out: Anti-HIV-1 Activity (EC50)

SMILES: Clc1cccc(Cl)c1Cc1nnc(Nc2ccc(COCc3ccsc3)cc2)o1 [Compound 1h]
- EC50 [1, 4]: > 21000 nM

SMILES: Cc1ccnc2c1NC(=O)c1cccnc1N2C1CC1 [nevirapine, reference compound]
- EC50 [2]: > 2100 nM

SMILES: [O-][n+]1ccc(OCc2ccc(Nc3ncc(Cc4c(F)cccc4F)o3)cc2Cl)cc1 [Compound 3o]
- EC50 [3]: > 2700 nM
- EC50 [2]: > 2100 nM

SMILES: Clc1cccc(Cl)c1Cc1nnc(Nc2ccc(COCc3ccccc3)cc2)o1 [Compound 1b]
- EC50 [1, 4]: > 21000 nM
- anti-HIV-1 activity in words [1]: inactivity

SMILES: N#Cc1ccc(Nc2ncc(Cc3c(F)cccc3F)o2)cc1 [Compound 3p]
- EC50 [3]: > 2700 nM

SMILES: N#Cc1ccc(Nc2ncc(Cc3c(F)cccc3F)o2)cc1Cl [Compound 3q]
- EC50 [2]: > 2100 nM

SMILES: Fc1cccc(F)c1Cc1cnc(Nc2ccc(-c3cccnc3)c(Cl)c2)o1 [Compound 3v]
- anti-HIV-1 activity in words [1]: good activity
- EC50 [2]: > 2100 nM

SMILES: Clc1cccc(Cl)c1Cc1nnc(Nc2ccc(COCc3ccoc3)cc2)o1 [Compound 1g]
- EC50 [1, 4]: > 21000 nM

SMILES: O=C1Nc2ccc(Cl)cc2[C@@](C#CC2CC2)(C(F)(F)F)O1 [evafirenz, reference compound]
- EC50 ([1]; MT2, read-out: WT EC50): 2 nM

SMILES: OCc1ccc(Nc2ncc(Cc3c(F)cccc3F)o2)cc1Cl [Compound 3m]
- enhancement of WT activity by addition of the chlorine (factor) ([1]; 3m versus 3i): 15

SMILES: Fc1cccc(F)c1Cc1cnc(Nc2ccc(-c3ccncc3)c(Cl)c2)o1 [Compound 3u]
- anti-HIV-1 activity in words [1]: good activity
